Experimental data from article PMC11507974, “Phytochemical Analysis, Antioxidant Activity and Bioassay-Guided Isolation of Acetylcholinesterase and Butyrylcholinesterase Inhibitors from Horsfieldia polyspherula Bark (Myristicaceae)” (Tropical Life Sciences Research, 2024).
Like-named read-outs stand apart in the source and are kept apart here.

What was measured:
DPPH radical scavenging = details: 15 min incubation, 517 nm
Description: The free radical scavenging activity of the samples was determined using 1,1-diphenyl-2 picrylhydrazyl (DPPH) assay as described with minor modification ([Chua et al. 2013]). The DPPH solution was prepared by dissolving 3.0 mg of DPPH in 150 mL of methanol to afford 20 μg/mL. A 750 μL of the sample’s solution at different concentrations, ranging from 1.25 mg/mL to 40 mg/mL was added to 1,500 μL of DPPH solution. The absorbance was recorded at 517 nm using Shimadzu UV-2600 UV-Vis spectrophotometer after 15 min of incubation at room temperature. Ascorbic acid was used as the positive control, while methanol was used as negative control for scanning the background. The ability to scavenge the DPPH was calculated using Equation 2:
(2) DPPH radical scavenging activity (%)=Abs control-Abs sample/Abs control×100
where Abs control is the absorbance of DPPH while Abs sample is the absorbance of the sample. […] All experiments were performed in triplicates.

BuChE from equine serum = biological target: T1, BuChE from equine serum (Equus caballus, UniProt P81908); test: biochemical; assay type: biochemical; details: for SI (selectivity index for BuChE): IC50 (AChE)/ IC50 (BuChE)
T1 construct: BuChE from equine serum lyophilized powder (C7512-1.2KU); purchased Sigma Aldrich, Germany C7512-1.2KU; host or cells: equine serum
Description: (§1) To assess the inhibitory activity of H. polyspherula extract, fractions and isolated compounds towards AChE and BuChE, Ellman’s spectrophotometric method was followed ([Ellman et al. 1961]) using purified AChE from Electrophorus electricus (electric eel) Type V-S (C2888-1K), and BuChE from equine serum lyophilized powder (C7512-1.2KU) all from Sigma Aldrich, Germany. The reaction took place in a final volume of 200 μL of a (140 μL to 160 μL) 100 mM phosphate-buffered solution at pH 7.5 for AChE and 8.0 for BuChE, containing (20 μL) 0.2 U of AChE or 0.1 U of BuChE. Inhibition curves were made by pre-incubating this mixture with six concentrations of each sample (20 μL) for 15 min. A sample with no compound (blank) was present to determine the 100% of enzyme activity. After the pre-incubation period, ten microlitre (10 μL) of 10 mM of 5,5′-dithiobis-2-nitrobenzoic acid (DTNB, D8130 Sigma Aldrich, Germany) was added prior to 14 mM (10 μL) acetylthiocholine iodide (A5751) or 14 Mm butyrylthiocholine iodide (B3253-5G) source from Sigma Aldrich, Germany) were added, DTNB produces yellow anion 5-thio-2-nitrobenzoic acid along with the enzymatic degradation of ATChI or BuTChI. Changes in absorbance were detected at 412 nm in a 96 well spectrophotometric microplate reader (Bostch Biotek) after 30 min. […] Data are analysed using excel, graph pad prism 9.0.0 and expressed as means ± SD of at least three different experiments in triplicate.
(§2) (3) % inhibition=[…]/Abs (blank)×100

[1] = biological target: T2, AChE from Electrophorus electricus (electric eel) Type V-S (Electrophorus electricus, UniProt O42275); test: biochemical; assay type: biochemical; details: for SI (selectivity index for AChE): IC50 (BuChE)/ IC50 (AChE)
T2 construct: purified AChE from Electrophorus electricus (electric eel) Type V-S (C2888-1K); purchased Sigma Aldrich, Germany C2888-1K
Description: as §1, §2

[2] = IC50 BuChE, pure compounds (μM for the pure compound)
[3] = IC50 AChE, pure compounds (μM for the pure compound)
[4] = pure compounds (μM for the pure compound)

T1 sequence (P81908 whole entry): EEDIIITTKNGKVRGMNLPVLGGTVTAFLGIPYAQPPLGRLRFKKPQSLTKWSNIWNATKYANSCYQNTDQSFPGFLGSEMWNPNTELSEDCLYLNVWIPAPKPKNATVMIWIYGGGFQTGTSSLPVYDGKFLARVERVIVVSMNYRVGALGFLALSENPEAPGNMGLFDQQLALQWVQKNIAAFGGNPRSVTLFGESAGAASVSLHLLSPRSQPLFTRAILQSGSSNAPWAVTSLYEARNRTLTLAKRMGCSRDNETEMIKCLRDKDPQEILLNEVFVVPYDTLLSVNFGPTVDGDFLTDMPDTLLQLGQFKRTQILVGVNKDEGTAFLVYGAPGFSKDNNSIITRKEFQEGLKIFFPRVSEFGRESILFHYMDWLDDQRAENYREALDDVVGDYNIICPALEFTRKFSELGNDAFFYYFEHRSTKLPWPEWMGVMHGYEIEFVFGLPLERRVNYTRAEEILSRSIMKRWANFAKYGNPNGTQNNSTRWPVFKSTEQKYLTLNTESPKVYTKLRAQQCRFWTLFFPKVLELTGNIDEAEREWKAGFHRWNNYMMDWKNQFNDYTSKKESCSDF
T2 sequence (O42275 24-633): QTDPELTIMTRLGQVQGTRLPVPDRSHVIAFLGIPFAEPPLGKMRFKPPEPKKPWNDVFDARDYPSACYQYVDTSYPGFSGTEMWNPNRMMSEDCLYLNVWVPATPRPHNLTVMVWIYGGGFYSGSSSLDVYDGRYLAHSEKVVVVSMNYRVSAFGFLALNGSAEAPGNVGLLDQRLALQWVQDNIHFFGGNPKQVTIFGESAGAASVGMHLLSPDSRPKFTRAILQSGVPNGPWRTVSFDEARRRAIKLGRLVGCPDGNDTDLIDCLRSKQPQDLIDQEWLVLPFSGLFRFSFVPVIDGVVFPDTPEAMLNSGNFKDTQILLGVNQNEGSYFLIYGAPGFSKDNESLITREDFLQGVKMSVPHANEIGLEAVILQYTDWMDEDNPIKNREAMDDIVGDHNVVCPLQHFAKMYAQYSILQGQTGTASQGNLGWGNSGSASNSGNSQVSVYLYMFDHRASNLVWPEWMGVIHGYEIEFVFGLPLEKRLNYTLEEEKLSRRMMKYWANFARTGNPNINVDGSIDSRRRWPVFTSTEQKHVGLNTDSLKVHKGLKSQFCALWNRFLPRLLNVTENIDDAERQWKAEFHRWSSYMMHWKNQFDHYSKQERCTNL

Compound | IC50 of DPPH free radical scavenging activity (DPPH radical scavenging) [µg/mL] | SI (selectivity index for BuChE) (BuChE from equine serum) | SI (selectivity index for AChE) [1] | IC50 (BuChE from equine serum; [2]) [µM] | IC50 [1, 3] [µM] | further results
O=C1O[C@H]([C@@H](O)CO)C(O)=C1O [Ascorbic acid, reference compound] | 4.21 ± 0.13 |  |  |  |  | 
O=C(O)CCCCCCCCCCCCCCCc1ccccc1 [Compound 1, 16-phenylhexadecanoic acid] |  | 1.14 | 0.88 |  |  | IC50 (BuChE from equine serum; pure compounds (μM for the pure compound), read-out: IC50 BuChE): 41 ± 1.99 µM; IC50 ([1]; pure compounds (μM for the pure compound), read-out: IC50 AChE): 46.8 ± 2.44 µM
CCCCCCCCCCCc1ccccc1 [Compound 2, Undecylbenzene] |  | 1.05 | 0.95 | 234 ± 4.78 | 246.1 ± 1.4 | 
O=C(O)c1ccc(O)c(O)c1 [Compound 3, 3,4-dihydroxybenzoic acid] | 6.56 ± 0.02 | 1.41 | 0.71 | 232 ± 8.37 | 327 ± 6.83 | 
CCCCCCCCCCCCCC(=O)OCC(COC(=O)CCCCCCCCCCCCC)OC(=O)CCCCCCCCCCCCC [Compound 9, Trimyristin] |  |  |  |  |  | IC50 BuChE (BuChE from equine serum; [4]): no inhibitory activities; IC50 AChE [1, 4]: no inhibitory activities
CNC(=O)Oc1ccc2c(c1)[C@]1(C)CCN(C)[C@@H]1N2C [Eserine, reference compound] |  |  |  |  |  | % inhibition BuChE (BuChE from equine serum; control, tested at 0.2 μM): 44.45 ± 0.23%
